The test system of series [1] is uterine horns in mice. Put plainly: Weight of uterine horns in ovariectomized mice: estrogen, oxandrolone or combination. Particulars: second experiment (oxandrolone); for D Hs/BW (dry horns Rt + Lt / body weight) / Lt H D (left horn dry weight) / Rt H D (right horn dry weight): dried 90° C. 24 hrs; for W Hs/BW (wet horns Rt + Lt / body weight) / Lt H W (left horn wet weight) / Rt H W (right horn wet weight): daily injections 7 days. An excerpt: (§1) The protocol employed in the experiment included taking ovariectomized female mice ordered from Charles River Laboratories, of which the females were 32-52 days old, after ovariectomy, and separating them into four groups. The first group of mice received daily injections of testosterone for 7 days. A second group of mice received daily injections of estradiol for 7 days. A third group of mice received daily injections of testosterone plus estradiol for 7 days. Finally, the mice in the fourth group received daily injections of a control vehicle for 7 days. All of the injections were given 1M at 10 AM, alternatively to the right and left buttock. The daily amount injected of the estradiol and/or testosterone was 10 μg/Kg of each hormone, delivered at a dose of 0.25 ml.
(§2) The injections were produced based upon the following protocols. The estradiol selected was the oil-dissolved 17β-estradiol from Sigma (17β-estradiol E-8875. The estradiol was prepared by dissolving 200 μg of the hormone in 0.25 ml ethanol for a ×1000 stock (0.8 mg/1 ml=×1000 stock). Next, 10 μl aliquots were dispensed into nine 15 ml conical plastic tubes and frozen. For each injection, one of the tubes was thawed, 9.99 ml saline was added and then mixed to obtain 10 ml of the solution at a level of 0.8 μg/1 ml. Then, 0.25 ml were injected into each animal.
A second experiment was performed using the protocols set above. The only change included replacing testosterone with oxandrolone. The oxandrolone was prepared by dissolving a 20 mg powder of the original vial in 1.0 ml of DMSO. 100 μl aliquots were then dispensed into 10 new vials (each containing now 2 mg/vial, or 20 μg/μl) and all vials, except one, were frozen at −20° C. The 9 frozen vials are referred to herein as “Original Stocks”.
Next, one of the Original Stock vials containing 100 μl of 20 μg/μl Oxandrolone was diluted to a 1:5 ratio in DMSO by adding 400 μl DMSO. […] 50 μl aliquots were then dispensed into 10 vials (each containing now 0.4 μg/μl, or 20 μg/50 μl) of which nine were frozen. The frozen vials from this part of the experiment are herein referred to as “Diluted Stocks”.
One Diluted Stock vial was taken and diluted in 24.95 ml saline to get a solution of 20 μg/25 ml oxandrolone, or 0.2 μg/0.25 ml. The 0.5 ml aliquots are then dispensed into 20 vials and frozen. The remaining 15 ml were discarded. On the day of injection, each one of the vials was thawed 0.25 ml were injected into each animal based upon a 20 gm animal. The dose injected may be adjusted per actual weight of the animal (may vary from 19 gm to 24 gm, 0.238 ml to 0.3 ml).
After the last day of injections, the mice were weighed and then euthanized in a CO2 chamber. Blood was obtained from the heart in an amount of 2-5 ml. Time was allotted to let it clot and then it was centrifuged and the serum was collected and stored at −80° C. The abdomen was opened by a longitudinal ventral incision. Then the uterine horns were identified and the right horn was transected from the level of the vagina until the ovary (thus, without the ovary and without the parametrium). This process was repeated for the left horn. Both horns were weighed to determine the wet weight of the horns. Then the horns were placed on silver foil paper and baked in an oven at 90° C. for 24 hrs. Then the dry weight of the horns was taken.

Series [2] relates to uterine horns in mice. As to the kind of experiment: Weight of uterine horns in ovariectomized mice: estrogen, testosterone or combination. Particulars: daily injections 7 days, 10 μg/Kg of each hormone; for D Hs/BW (dry horns Rt + Lt / body weight) / Lt H D (left horn dry weight) / Rt H D (right horn dry weight): dried 90° C. 24 hrs.
From the text: Applicants performed a set of experiments to determine the effects of estrogen and testosterone on weight of uterine horns in mice.
as §1, §2
The testosterone selected was testosterone enanthane from Bristol Myers Squib (Delatestryl™). The testosterone was prepared by aspirating […] from a bottle containing 200 mg/1 ml testosterone via a tuberculin syringe of 1.0 ml. Next, 24.9 ml of ethanol was poured into a 50 ml conical plastic tube. Then 0.1 ml of the testosterone was dissolved in the syringe with the 24.9 ml of ethanol. This produced a ×1000 stock of 0.8 mg/1 ml. Similar to the estradiol protocol, next, 10 μl aliquots were dispensed into nine 15 ml conical plastic tubes and frozen. For each injection, one of the tubes was thawed, 9.99 ml saline is added and then mixed to obtain 10 ml of the solution at a level of 0.8 μg/1 ml. Then, 0.25 ml were injected into each animal. The injections were based for a 20 gm animal. The dose injected per actual weight of the animal may be adjusted by varying the weight, i.e., may vary from 19 gm to 24 gm (0.238 ml to 0.3 ml).
After the seven days of injections, the mice were euthanized via injection from Lumina. The mice were then weighed. After midline laparotomy, 2 ml to 5 ml does of blood was obtained from the heart. The blood was allowed to clot and was then centrifuged and the resulting serum was collected and stored at −80° C. The uterine horns were then identified, transected from the level of the vagina till the ovary (without the ovary and without the parametrium), weighted (i.e., wet weight of Rt and Lt horn), and placed separately in a piece of silver foil paper, and baked in an oven at 90° C. for 24 hrs to obtain the dry weight of the horns.

Where [3] appears, read: individual animal, ovariectomized female mice.

The values below come from US20060154907A1, “Method of treating hormonal deficiencies in women undergoing estrogen replacement therapy” (Barr Laboratories, Inc., priority 2000, published 2006).

Values joined by “and” are separate entries in the source; they are usually repeats but may differ in a detail not shown here. Equal entries are not always repeated.

For the compound `C[C@]12CC[C@@H]3c4ccc(O)cc4CC[C@H]3[C@@H]1CC[C@@H]2O` [E, 17β-estradiol], in the series on uterine horns in mice [1] (group mean), the “D Hs/BW (dry horns Rt + Lt / body weight)” value turned out to be 0.66 mg/gm and the “W Hs/BW (wet horns Rt + Lt / body weight)” value was 3.63 mg/gm. For the same compound, in the series with uterine horns in mice [1] (individual animal), the “D Hs/BW (dry horns Rt + Lt / body weight)” value is 0.97 mg/gm and 0.60 mg/gm and 0.61 mg/gm and 0.49 mg/gm and 0.63 mg/gm; the “Lt H D (left horn dry weight)” value is 12 mg and 4.8 mg and 7.7 mg and 4.6 mg and 5 mg; the “Rt H D (right horn dry weight)” value is 9.9 mg and 7.3 mg and 4.7 mg and 6.5 mg and 8.0 mg; the “Lt H W (left horn wet weight)” value was 44.9 mg and 29.7 mg and 48.1 mg and 34.4 mg and 32.7 mg. In the series with uterine horns in mice [1] (individual animal), the “Rt H W (right horn wet weight)” value is 46.7 mg and 41.2 mg and 30 mg and 35 mg and 44.2 mg; the “W Hs/BW (wet horns Rt + Lt / body weight)” value is 4.06 mg/gm and 3.52 mg/gm and 3.82 mg/gm and 3.05 mg/gm and 3.70 mg/gm. Further, in the series on uterine horns in mice [2] (group mean), the “Lt H W (left horn wet weight)” value came out at 20.0 mg, the “Rt H W (right horn wet weight)” value is 19.5 mg, the “W Hs/BW (wet horns Rt + Lt / body weight)” value is 1.82 mg/gm and the “D Hs/BW (dry horns Rt + Lt / body weight)” value is given as 0.27 mg/gm. Moreover, in the series on uterine horns in mice [2] (group mean), the “Lt H D (left horn dry weight)” value is on record as 2.9 mg and the “Rt H D (right horn dry weight)” value is reported as 3.0 mg. Further, in the series on uterine horns in mice [2] (individual animal), the “D Hs/BW (dry horns Rt + Lt / body weight)” value was 0.28 mg/gm and 0.21 mg/gm and 0.38 mg/gm and 0.24 mg/gm and 0.22 mg/gm; the “Lt H D (left horn dry weight)” value is 2.9 mg and 2.2 mg and 4.2 mg and 2.6 mg and 2.4 mg; the “Rt H D (right horn dry weight)” value is 3.3 mg and 2.5 mg and 4.0 mg and 2.4 mg and 2.6 mg. In the series with uterine horns in mice [2] (setting [3]), the “Lt H W (left horn wet weight)” value is 21.5 mg and 18.0 mg and 24.2 mg and 19.5 mg and 16.7 mg; the “Rt H W (right horn wet weight)” value is 20.6 mg and 16.2 mg and 26.6 mg and 17.3 mg and 16.9 mg; the “W Hs/BW (wet horns Rt + Lt / body weight)” value was 1.92 mg/gm and 1.55 mg/gm and 2.37 mg/gm and 1.79 mg/gm and 1.47 mg/gm.
For the compound `C[C@]12COC(=O)C[C@@H]1CC[C@@H]1[C@@H]2CC[C@@]2(C)[C@H]1CC[C@]2(C)O` [Ox, oxandrolone], in the series with uterine horns in mice [1] (group mean), the “D Hs/BW (dry horns Rt + Lt / body weight)” value was found to be 0.35 mg/gm and the “W Hs/BW (wet horns Rt + Lt / body weight)” value came out at 1.54 mg/gm. In the series on uterine horns in mice [1] (individual animal), the “D Hs/BW (dry horns Rt + Lt / body weight)” value is 0.26 mg/gm and 0.20 mg/gm and 0.76 mg/gm and 0.16 mg/gm and 0.37 mg/gm; the “Lt H D (left horn dry weight)” value is 2.3 mg and 2.2 mg and 5.5 mg and 1.4 mg and 4.3 mg; the “Rt H D (right horn dry weight)” value was 3.4 mg and 2.0 mg and 12.5 mg and 2.2 mg and 4.2 mg; the “Lt H W (left horn wet weight)” value was 14.4 mg and 13.8 mg and 22.9 mg and 11.3 mg and 19.4 mg. In the series on uterine horns in mice [1] (individual animal), the “Rt H W (right horn wet weight)” value was 16.5 mg and 12.0 mg and 35.7 mg and 13.2 mg and 14.6 mg; the “W Hs/BW (wet horns Rt + Lt / body weight)” value was 1.40 mg/gm and 1.22 mg/gm and 2.47 mg/gm and 1.11 mg/gm and 1.50 mg/gm.
For `CCCCCCC(=O)O[C@H]1CC[C@H]2[C@@H]3CCC4=CC(=O)CC[C@]4(C)[C@H]3CC[C@]12C` [T, testosterone enanthane], in the series with uterine horns in mice [2] (group mean), the “Lt H W (left horn wet weight)” value was found to be 12.6 mg, the “Rt H W (right horn wet weight)” value is recorded as 14.0 mg, the “W Hs/BW (wet horns Rt + Lt / body weight)” value turned out to be 1.21 mg/gm and the “D Hs/BW (dry horns Rt + Lt / body weight)” value is given as 0.27 mg/gm. Further, in the series with uterine horns in mice [2] (group mean), the “Lt H D (left horn dry weight)” value is 3.2 mg and the “Rt H D (right horn dry weight)” value was found to be 2.8 mg. In addition, in the series on uterine horns in mice [2] (individual animal), the “D Hs/BW (dry horns Rt + Lt / body weight)” value was 0.57 mg/gm and 0.25 mg/gm and 0.16 mg/gm and 0.09 mg/gm and 0.31 mg/gm; the “Lt H D (left horn dry weight)” value is 8.2 mg and 4.3 mg and 0.8 mg and 0.9 mg and 1.9 mg; the “Rt H D (right horn dry weight)” value is 4.3 mg and 1.1 mg (2×) and 2.5 mg and 4.8 mg. Also, in the series with uterine horns in mice [2] (setting [3]), the “Lt H W (left horn wet weight)” value was 21.3 mg and 15.6 mg and 3.7 mg and 8.4 mg and 13.9 mg; the “Rt H W (right horn wet weight)” value is 16.2 mg and 11.7 mg and 13.5 mg and 8.4 mg and 20.1 mg; the “W Hs/BW (wet horns Rt + Lt / body weight)” value was 1.72 mg/gm and 1.26 mg/gm and 0.81 mg/gm and 0.72 mg/gm and 1.55 mg/gm.
